Data: patent publication US20140205566A1, “CYCLIC NUCLEUOSIDE DERIVATIVES AND USES THEREOF” (NOVARTIS AG, priority 2012, published 2014)
Like-named read-outs stand apart in the source and are kept apart here.

Key:
[1] = system: dengue virus; assay: Dengue EC50 determination: PBMC infected with virus/humanized 4G2 antibody complex, plaque reduction assay using BHK cells; format: cell-based; settings: M.O.I of 1, 48 hours, plaque reduction in BHK cells
Experimental: Cryopreserved PBMC (Peripheral Blood Mononuclear Cell) cells were purchased from AllCells, LLC in USA. The cells were then thawed according to manufacturer's instructions and re-suspended in RPMI medium supplemented with 1% penicillin/streptomycin solution and 10% Fetal Calf serum. The cells were then counted and viability checked (viability should be at least 80%). After centrifuging and removing the media, the cells were diluted to 1×10^7 cells/mL in RPMI medium supplemented with 1% penicillin/streptomycin. 50 μl of the cells were then dispensed into 96-well tissue culture plate resulting in 5×10^5 cells/well. Next, virus with humanized 4G2 mixture was prepared for infection. Briefly, virus (2×10^7 pfu/ml) was mixed with humanized 4G2 antibody with the final antibody concentration of 0.38 μg/ml and incubated for 30 minutes at 4° C. to assist virus/antibody complex formation. The virus-antibody complex was then added to the PBMC at multiplicity of infection (M.O.I) of 1. The mixture of cells, virus and antibody was then further incubated in the plates at 37° C. for an hour in the humidified incubator for virus attachment and infection to take place. Serial diluted compounds were then added to the final media volume of 200 μl with 2% Fetal Calf Serum (final PBMC concentration would be 2.5×10^6 cells/mL). The plates were then incubated at 37° C., 5% CO2 for another 48 hours. The extent of the infection and compound inhibition was measured by plaque reduction assay using BHK cells [RD-2004-80036]. Briefly, supernatants of BHK cells grown in 24-well tissue culture (seeded at 200,000 cells/well the night before) were removed and subjected to 200 μl of diluted supernatants derived from PBMC infection containing serial diluted compounds. After incubating it for 37° C. for 1 hour in the incubator, the supernatants were removed and BHK cells overlaid with RPMI media containing 0.8% methyl-cellulose, 0.5% DMSO, 0.05% sodium bicarbonate, 25 mM HEPES, 2% fetal bovine serum and 1% penicillin/streptomycin solution. After additional 4 days of incubation at 37° C. incubator, the monolayer of BHK cells were fixed with 4% paraformaldehyde, stained with crystal violet and plaques counted. The dose response (n=2) is calculated by Prism from Graphpad software using a mathematical curve fitting analysis called nonlinear regression with four independent parameters. Briefly, the software generates the best fit curve using the formula F(x)=((A−D)/(1+((x/C)̂B)))+D. In this formula, x represents the concentration of the compound, A is the minimum value, B represents the steepness of the curve (sometimes known as Hill slope), C is the inflection point and D is the maximum value. EC50 was estimated as the concentration of the compound which will inhibit 50% of the plaque formation. A positive control (7-deaza-2′-C-acetylene-adenosine) was used to ensure the quality of the data.

[2] = Stability in liver microsomes; format: in vitro ADME; settings: human, read-out: liver microsomes t1/2
[3] = Liver S9 stability determination; format: in vitro ADME; settings: human liver S9 fraction, 1 μM compound, 37° C., up to 120 mins, read-out: liver S9 t1/2
Text: The liver is the main organ of metabolism and contains a high concentration of drug metabolizing enzymes. Metabolic clearance, particularly hepatic, is one of the main determinants affecting systemic drug exposure following both oral and i.v. administration. To assess the ability of the compounds of the invention to reach a systemic circulation, the hepatic S9 fraction was chosen to test for stability of the compounds. Hepatic S9 fraction was obtained following centrifugation of homogenized liver tissue at 9,000 g. The hepatic S9 fraction is composed of both microsomal and cytosolic fractions and contains all the enzymes contained in microsomes plus additional phase I and phase II cytosolic enzymes.
Stock solutions of each tested compound (100 μM) were prepared in methanol by two subsequent 1:10 dilutions from 10 mM DMSO drug solutions, the final assay concentration was 1 μM. Frozen pooled liver S9 fraction was thawed from −20° C. and diluted in phosphate buffer (with and without NADPH) which was pre-warmed at 37° C. for 10 minutes. The reaction was initiated by addition of compound. Manual sample plates were incubated on a Thermo Max Q 2000 shaker placed in a temperature controlled Sartorius Certomat H hood set at 37° C. Sequential samples were removed at designated timepoints (0, 5, 15, 30, 60 and 120 mins) and quenched with 4 volumes of ice cold acetonitrile (containing internal standard, diazepam), centrifuged and supernatants reconstituted in water (acetonitrile:water, 50:50% v/v). Samples were then analyzed by LCMS/MS or LC-UV to assess parent depletion. In vitro half-life (t1/2) is calculated based on the rate of disappearance of compound from the reaction mixture at incubation timepoints up to 2 hours.

[4] = CCK8 cytotoxicity assay in THP-1 cells; format: cell-based; settings: human, CCK-8
Experimental: 4 day cytotoxicity assay using THP-1 cells: THP-1 cells grown in suspension were counted and diluted to 8×10^4 cells/ml in RPMI-1640 media supplemented with 10% fetal bovine serum (FBS) and 1% penicillin/streptomycin. 25 ul of the THP-1 containing media consisting of 2000 cells were dispensed in 384-well tissue culture plate and pre-incubated at room temperature for 30 minutes, followed by 37° C., 5% CO2 overnight in the humidified incubator. On the next day, serial-diluted compound plates were prepared and 125 nl of compounds at various concentrations were then dispensed into the tissue culture well (200× dilution). The plates were then transferred to 37° C., 5% CO2 humidified incubator for additional 96 hours. Cytotoxicity was measured by CCK-8 assay. Briefly, CCK-8 was thawed on bench top and diluted 2.5× with the growth media. 35 ul of the pre-diluted CCK-8 was then introduced into each well and the plates were then further incubated in 37° C., 5% CO2 humidified incubator for 3 hours. The absorbance was read by Envision at 450 nm. Dose response curves were calculated as in the previous section (n=2). The CC50 is estimated as the concentration of the compound which will inhibit 50% of the signal. A positive control (puromycin) was used to ensure the quality of the data.

[5] = CCK8 cytotoxicity assay in HepG2 cells; format: cell-based; settings: human, CCK-8
Experimental: HepG2 cells were trypsinized, washed, counted and diluted to 1.6×10^4 cells/ml in DMEM-W/O Glucose, supplemented with 10% Fetal bovine serum (FBS), 1% Penicillin/Streptomycin, 2 mM HEPES, 1 mM Sodium Pyruvate, 10 mM Galactose & 2 mM Glutamine. 25 μl of the media containing 400 cells per well were dispensed in clear 384-well tissue culture plate and incubated at room temperature for 30 minutes. The plate was then transferred and placed at 37° C., 5% CO2 humidified incubator overnight. On the next day, serial-diluted compound plates were prepared and 125 nl of compounds at various concentrations were then dispensed into the tissue culture well (200× dilution). The plates were then transferred to 37° C., 5% CO2 humidified incubator for additional 96 hours. Cytotoxicity was measured by CCK-8 assay. Briefly, CCK-8 was thawed on bench top and diluted 2.5× with the growth media. 35 ul of the pre-diluted CCK-8 was then introduced into each well and the plates were then further incubated in 37° C., 5% CO2 humidified incubator for 3 hours. The absorbance was read by Envision at 450 nm. Dose response curves were calculated as in the previous section. The CC50 is estimated as the concentration of the compound which will inhibit 50% of the signal. A positive control (puromycin) was used to ensure the quality of the data.

[6] = Bulk-state stability and thermal conversion of crystalline forms; format: physicochemical; settings: heated at approximate 142° C.

Structure (SMILES) | EC50 [1] [µM] | CC50 at 96 h [4] [µM] | CC50 at 96 h [5] [µM] | further results
CCOC(=O)[C@H](C)N[P@@]1(=O)OC[C@H]2O[C@@H](n3cnc4c(N)nc(N)nc43)[C@](C)(F)[C@@H]2O1 [Comparative Example 1, (S)-Ethyl 2-(((2R,4aR,6R,7R,7aR)-6-(2,6-diamino-9H-purin-9-yl)-7-fluoro-7-methyl-2-oxidotetrahydro-4H-furo[3,2-d][1,3,2]dioxaphosphinin-2-yl)amino)propanoate, reference compound] | > 25 |  |  | 
CCOC(=O)[C@H](C)N[P@@]1(=O)OC[C@H]2O[C@@H](n3ccc(=O)[nH]c3=O)[C@](C)(F)[C@@H]2O1 [Comparative Example 2, (S)-ethyl 2-(((2R,4aR,6R,7R,7aR)-6-(2,4-dioxo-3,4-dihydropyrimidin-1(2H)-yl)-7-fluoro-7-methyl-2-oxidotetrahydro-4H-furo[3,2-d][1,3,2]dioxaphosphinin-2-yl)amino)propanoate, reference compound] | > 25 |  |  | 
CCOc1nc(N)nc2c1ncn2[C@@H]1O[C@@H]2CO[P@@](=O)(OC(C)C)O[C@H]2[C@@]1(C)F [Comparative Example 3, (2S,4aR,6R,7R,7aR)-6-(2-amino-6-ethoxy-9H-purin-9-yl)-7-fluoro-2-isopropoxy-7-methyltetrahydro-4H-furo[3,2-d][1,3,2]dioxaphosphinine 2-oxide, reference compound] | > 25 |  |  | 
COc1nc(N)nc2c1ncn2[C@@H]1O[C@H](CO[P@@](=O)(N[C@@H](C)C(=O)OC(C)C)Oc2ccccc2)[C@@H](O)[C@@]1(C)F [Comparative Example 4, (S)-isopropyl 2-(((S)-(((2R,3R,4R,5R)-5-(2-amino-6-methoxy-9H-purin-9-yl)-4-fluoro-3-hydroxy-4-methyltetrahydrofuran-2-yl)methoxy) (phenoxy)phosphoryl)amino)propanoate, reference compound] |  |  |  | half-life [2]: 6 min; half-life at 1 μM [3]: 18 min
CCOc1nc(N)nc2c1ncn2[C@@H]1O[C@@H]2CO[P@](=O)(NCC(=O)OC(C)C)O[C@H]2[C@@]1(C)F [Example 8, isopropyl 2-(((2R,4aR,6R,7R,7aR)-6-(2-amino-6-ethoxy-9H-purin-9-yl)-7-fluoro-7-methyl-2-oxidotetrahydro-4H-furo[3,2-d][1,3,2]dioxaphosphinin-2-yl)amino)acetate] | 0.33 | > 50 | > 50 | half-life at 1 μM ([3]; pooled liver S9 fraction): 57.5 min
CCOC(=O)[C@@H](N[P@]1(=O)OC[C@H]2O[C@@H](n3cnc4c(OCC)nc(N)nc43)[C@](C)(F)[C@@H]2O1)C(C)C [Example 11, (S)-ethyl 2-(((2S,4aR,6R,7R,7aR)-6-(2-amino-6-ethoxy-9H-purin-9-yl)-7-fluoro-7-methyl-2-oxidotetrahydro-4H-furo[3,2-d][1,3,2]dioxaphosphinin-2-yl)amino)-3-methylbutanoate] | 0.23 | > 50 | > 50 | half-life at 1 μM ([3]; pooled liver S9 fraction): 82 min
COC(=O)[C@H](C)N[P@@]1(=O)OC[C@H]2O[C@@H](n3cnc4c(OC(C)C)nc(N)nc43)[C@](C)(F)[C@@H]2O1 [Example 12, (S)-methyl 2-(((2R,4aR,6R,7R,7aR)-6-(2-amino-6-isopropoxy-9H-purin-9-yl)-7-fluoro-7-methyl-2-oxidotetrahydro-4H-furo[3,2-d][1,3,2]dioxaphosphinin-2-yl)amino)propanoate] | 0.43 | > 50 | > 50 | 
CCCOc1nc(N)nc2c1ncn2[C@@H]1O[C@@H]2CO[P@](=O)(N[C@@H](C)C(=O)OC)O[C@H]2[C@@]1(C)F [Example 14, (S)-methyl 2-(((2R,4aR,6R,7R,7aR)-6-(2-amino-6-propoxy-9H-purin-9-yl)-7-fluoro-7-methyl-2-oxidotetrahydro-4H-furo[3,2-d][1,3,2]dioxaphosphinin-2-yl)amino)propanoate] | 0.18 | > 50 | > 50 | 
CCOC(=O)[C@H](C)N[P@@]1(=O)OC[C@H]2O[C@@H](n3cnc4c(OCC)nc(N)nc43)[C@](C)(F)[C@@H]2O1 [Form III, (S)-ethyl 2-(((2R,4aR,6R,7R,7aR)-6-(2-amino-6-ethoxy-9H-purin-9-yl)-7-fluoro-7-methyl-2-oxidotetrahydro-4H-furo[3,2-d][1,3,2]dioxaphosphinin-2-yl)amino)propanoate] |  |  |  | form conversion on heating [6]: converts to Form II crystalline form
